According to US8821875B2, “Pharmaceutical composition comprising antibodies against catalase and superoxide dismutase for tumor therapy” (Universitaetsklinikum Freiburg, priority 2011, dated 2014):

B1: exogenous catalase: 1000 U/ml catalase from ox liver, added exogenously (protein, UniProt P00432 2-527, looked up)
Catalase: ADNRDPASDQMKHWKEQRAAQKPDVLTTGGGNPVGDKLNSLTVGPRGPLLVQDVVFTDEMAHFDRERIPERVVHAKGAGAFGYFEVTHDITRYSKAKVFEHIGKRTPIAVRFSTVAGESGSADTVRDPRGFAVKFYTEDGNWDLVGNNTPIFFIRDALLFPSFIHSQKRNPQTHLKDPDMVWDFWSLRPESLHQVSFLFSDRGIPDGHRHMNGYGSHTFKLVNANGEAVYCKFHYKTDQGIKNLSVEDAARLAHEDPDYGLRDLFNAIATGNYPSWTLYIQVMTFSEAEIFPFNPFDLTKVWPHGDYPLIPVGKLVLNRNPVNYFAEVEQLAFDPSNMPPGIEPSPDKMLQGRLFAYPDTHRHRLGPNYLQIPVNCPYRARVANYQRDGPMCMMDNQGGAPNYYPNSFSAPEHQPSALEHRTHFSGDVQRFNSANDDNVTQVRTFYLKVLNEEQRKRLCENIAGHLKDAQLFIQKKAVKNFSDVHPEYGSRIQALLDKYNEEKPKNAVHTYVQHGSHLSAREKANL

Key:
[1] = system: human Ewing's sarcoma line SKN-MC; experiment: Induction of apoptosis in Ewing's sarcoma line SKN-MC and inhibitor analysis; assay type: cell-based; settings: 3 hours, inhibitor concentrations; for effect of inhibitor on anti-catalase-induced apoptosis: FIG. 13A; for effect of inhibitor on anti-SOD-induced apoptosis: FIG. 13B
Description: To 12 500 cells of the human neuroblastoma line SHEP and the human Ewing's sarcoma line SKN-MC in […] EMEM plus 5% FBS the given concentrations of anti-catalase and anti-SOD, respectively, were added. The percentages of apoptotic cells were determined after 5 hours (SHEP) and 5.5 hours (SKNMC), respectively.
To 10 000 cells of the human Ewing's sarcoma line SKN-MC in […] EMEM plus 5% FBS the given inhibitors and the concentrations of anti-catalase and anti-SOD, respectively, plotted in the abscissa were added. The percentages of apoptotic cells were determined after 3 hours.
Inhibitors: 50 mM taurine (HOCl scavenger); […] (peroxynitrite decomposition catalyst); 1000 U/ml catalase from ox liver; 40 mM MnTE2PyP(SOD mimetic); 90 U/ml MnSOD; 20 mM 3-Br-7-nitroindazole (nNOS specific inhibitor).

MKN-45 cells [2] = experiment: Inhibitor analysis of antibody-induced apoptosis in MKN-45 cells (ROS signaling); assay type: cell-based, human; settings: for effect of inhibitor on apoptosis induced by monoclonal antibody against catalase: MKN-45, 2 hours, FIG. 8; for effect of inhibitor on anti-SOD-induced apoptosis: MKN-45, 6 hours, inhibitor concentrations of b79
Description: To 12 500 MKN-45 cells in […] RPMI 1640 medium, 10% FBS the given concentrations of the monoclonal antibodies against catalase as well as the mentioned inhibitors were added and the incubation was continued for 2 hours at 37° C., 5% CO2, before in duplicates the percentages of apoptotic cells were determined.
To 12 500 MKN-45 cells in […] RPMI 1640 medium, 10% FBS the given concentrations of the monoclonal antibodies against catalase and the given concentrations of the salen-manganese complex EUK-134 (chloro[[2,2′-[1,2-ethanediylbis[(nitrilo-κN)methylidyne]]bis[6-methoxyphenolato-κO]]]-manganese) (a catalase mimetic) were added and the incubation was continued for 2.5 hours at 37° C., 5% CO2. Subsequently, the percentage of apoptotic cells (duplicates) was determined according to the conventional apoptosis criteria membrane blebbing, nuclear condensation and/or nuclear fragmentation.
To 12 500 MKN-45 cells in […] RPMI 1640 medium, 10% FBS the given concentrations of monoclonal antibodies against SOD and the given inhibitors were added and the incubation was continued for 6 hours at 37° C., 5% CO2. Subsequently, the percentage of apoptotic cells (duplicates) was determined according to the conventional apoptosis criteria membrane blebbing, nuclear condensation, and/or nuclear fragmentation.
Inhibitors: […] FeTPPS (peroxynitrite decomposition catalyst); 75 U/ml MnSOD; 50 mM taurine (HOCl scavenger); 2.4 mM L-NAME (NOS inhibitor).

MKN-45 cells [3] = experiment: Synergistic effect of anti-catalase and anti-SOD in induction of apoptosis in MKN-45 cells; assay type: cell-based, human; settings: 2 mM histidine, MKN-45, 3 hours, FIG. 18
Description: 12 500 MKN-45 cells in […] RPMI 1640 medium, 10% FBS received the given concentrations of anti-catalase. Control batches remained free of additional batches, batches for determination of the interaction additionally received 0.5 ng/ml or 2 ng/ml anti-SOD. The percentages of apoptotic cells were determined after 5.5 hours in duplicates.
This is unexpected and of great interest, since on its basis a considerable saving of antibodies could be achieved with the same effect. So, for example the combination of 2 ng/ml anti-SOD with 2 ng/ml anti-catalase results in 80 percent of the effect that can be achieved with 125 ng/ml of anti-catalase antibodies alone. 12 500 MKN-45 cells in […] RPMI 1640 medium, 10% FBS received the given concentrations of anti-catalase (control), anti-catalase plus 2 mM histidine (singlet oxygen scavenger), anti-catalase plus 1 ng/ml anti-SOD, anti-catalase/1 ng/ml anti-SOD/2 mM histidine. The percentages of apoptotic cells are determined after 3 hours in duplicates.
12 500 MKN-45 cells in […] RPMI 1640 medium, 10% FBS received the given concentrations of the Fab fragment AbD15562 directed against catalase. […] The percentages of apoptotic cells were determined after 3 hours in duplicates.

Row | Molecule | effect of inhibitor on anti-catalase-induced apoptosis [1] | effect of inhibitor on anti-SOD-induced apoptosis [1] | effect of inhibitor on apoptosis induced by monoclonal antibody against catalase (MKN-45 cells [2]; inhibitor concentrations) | effect of inhibitor on anti-SOD-induced apoptosis (MKN-45 cells [2]; FIG. 10) | further results
1 | O=[N+]([O-])c1cccc2c(Br)n[nH]c12 [3-Br-7-nitro-indazole, 3-bromo-7-nitroindazole] | inhibition | inhibition | – | – | –
2 | NCCc1ccc(S(=O)(=O)F)cc1 [AEBSF, 4-(2-aminoethyl)-benzenesulfonyl fluoride] | – | – | inhibited | – | –
3 | COc1cccc(C=NCCN=Cc2cccc(OC)c2[O-])c1[O-].[Cl-].[Mn+3] [EUK-134] | – | – | – | – | effect on anti-catalase-induced apoptosis (MKN-45 cells [2]; 0.25 μM EUK-134, middle concentration range of the antibody, FIG. 9): stronger inhibition; effect on anti-catalase-induced apoptosis (MKN-45 cells [2]; 0.25 mM EUK-134, lower concentration range of the antibodies, FIG. 9): significant increase in apoptosis; effect on concentration curve of anti-catalase-induced apoptosis (MKN-45 cells [2]; 0.06 and 0.125 mM EUK-134, MKN-45, 2.5 hours, FIG. 9): change the optimum curve into a plateau curve; effect on anti-catalase-induced apoptosis (MKN-45 cells [2]; two next higher concentrations of EUK-134, middle concentration range of the antibody, FIG. 9): complete inhibition of the HOCl pathway
4 | Cl.O=S(=O)([O-])c1ccc(-c2c3nc(c(-c4ccc(S(=O)(=O)O)cc4)c4ccc([nH]4)c(-c4ccc(S(=O)(=O)O)cc4)c4nc(c(-c5ccc(S(=O)(=O)O)cc5)c5ccc2[nH]5)C=C4)C=C3)cc1.[Fe] [FeTPPS, 5-, 10-, 15-, 20-tetrakis(4-sulfonatophenyl)porphyrinato iron(III) chloride] | inhibition | inhibition | inhibited in the lower concentration range of the antibody | inhibition | –
5 | COC(=O)[C@@H](N)CCCNC(=N)N[N+](=O)[O-].Cl [L-NAME, N-ω-nitro-L-arginine methylester hydrochloride] | – | – | inhibited in the lower concentration range of the antibody | inhibition | –
6 | CC[n+]1ccccc1-c1c2nc(c(-c3cccc[n+]3CC)c3ccc([n-]3)c(-c3cccc[n+]3CC)c3nc(c(-c4cccc[n+]4CC)c4ccc1[n-]4)C=C3)C=C2.[Cl-].[Cl-].[Cl-].[Cl-].[Cl-].[Mn+3] [MnTE2PyP, Mn(III) meso-tetrakis(N-ethyl-2-pyridyl)porphyrin pentachloride] | inhibition | inhibition | – | – | –
7 | N[C@@H](Cc1c[nH]cn1)C(=O)O [histidine] | – | – | – | – | blocking of the supra-optimum drop of the concentration-dependent curves (MKN-45 cells [3]): can be blocked; blocking of the synergistic effect between anti-SOD and anti-catalase (MKN-45 cells [3]): cannot be blocked
8 | NCCS(=O)(=O)O [taurine] | lacking inhibitory effect | lacking inhibitory effect | – | lacking inhabitability | effect on the NO/peroxynitrite pathway in anti-SOD-induced apoptosis (MKN-45 cells [2]; MKN-45, 50 mM taurine, FIG. 10): enhancing effect; effect of inhibitor on apoptosis induced by monoclonal antibody against catalase (MKN-45 cells [2]; higher antibody concentration (HOCl pathway)): inhibitory effect
9 | B1 | compensated | compensated | – | – | –
